Assay results from patent publication US20240092758A1, “IMIDAZOLO INDAZOLE COMPOUNDS AS JAK INHIBITORS” (Theravance Biopharma R&D IP, LLC, priority 2021, published 2024).

Experiments:
JAK3 = JAK3 (Homo sapiens (Human), UniProt P52333); assay: Biochemical JAK kinase assay (LanthaScreen), JAK3; conditions: read-out: JAK3 pKi (converted)
Procedure: (§1) A panel of four LanthaScreen JAK biochemical assays (JAK1, 2, 3 and Tyk2) were carried in a common kinase reaction buffer (50 mM HEPES, pH 7.5, 0.01% Brij-35, 10 mM MgCl2, and 1 mM EGTA). Recombinant GST-tagged JAK enzymes and a GFP-tagged STAT1 peptide substrate were obtained from Life Technologies.
(§2) Serially diluted compounds were pre-incubated with each of the four JAK enzymes and the substrate in white 384-well microplates (Corning) at ambient temperature for 1 h. ATP was subsequently added to initiate the kinase reactions in 10 μL total volume, with 1% DMSO. The final enzyme concentrations for JAK1, 2, 3 and Tyk2 are 4.2 nM, 0.1 nM, 1 nM, and 0.25 nM respectively; the corresponding Km ATP concentrations used are 25 μM, 3 μM, 1.6 μM, and 10 μM; while the substrate concentration is 200 nM for all four assays. Kinase reactions were allowed to proceed for 1 hour at ambient temperature before a 10 μL preparation of EDTA (10 mM final concentration) and Tb-anti-pSTAT1 (pTyr701) antibody (Life Technologies, 2 nM final concentration) in TR-FRET dilution buffer (Life Technologies) was added. The plates were allowed to incubate at ambient temperature for 1 h before being read on the EnVision reader (Perkin Elmer). Emission ratio signals (520 nm/495 nm) were recorded and utilized to calculate the percent inhibition values based on DMSO and background controls.
(§3) For dose-response analysis, percent inhibition data were plotted vs. compound concentrations, and IC50 values were determined from a 4-parameter robust fit model with the Prism software (GraphPad Software). Results were expressed as pIC50 (negative logarithm of IC50) and subsequently converted to pKi (negative logarithm of dissociation constant, Ki) using the Cheng-Prusoff equation.
(§4) Test compounds having a lower Ki value or higher pKi value in the four JAK assays show greater inhibition of JAK activity.

JAK2 = JAK2 (Homo sapiens (Human), UniProt O60674); assay: Biochemical JAK kinase assay (LanthaScreen), JAK2; conditions: for Ki: read-out: JAK2 pKi (converted)
JAK2, sequence (O60674 whole entry): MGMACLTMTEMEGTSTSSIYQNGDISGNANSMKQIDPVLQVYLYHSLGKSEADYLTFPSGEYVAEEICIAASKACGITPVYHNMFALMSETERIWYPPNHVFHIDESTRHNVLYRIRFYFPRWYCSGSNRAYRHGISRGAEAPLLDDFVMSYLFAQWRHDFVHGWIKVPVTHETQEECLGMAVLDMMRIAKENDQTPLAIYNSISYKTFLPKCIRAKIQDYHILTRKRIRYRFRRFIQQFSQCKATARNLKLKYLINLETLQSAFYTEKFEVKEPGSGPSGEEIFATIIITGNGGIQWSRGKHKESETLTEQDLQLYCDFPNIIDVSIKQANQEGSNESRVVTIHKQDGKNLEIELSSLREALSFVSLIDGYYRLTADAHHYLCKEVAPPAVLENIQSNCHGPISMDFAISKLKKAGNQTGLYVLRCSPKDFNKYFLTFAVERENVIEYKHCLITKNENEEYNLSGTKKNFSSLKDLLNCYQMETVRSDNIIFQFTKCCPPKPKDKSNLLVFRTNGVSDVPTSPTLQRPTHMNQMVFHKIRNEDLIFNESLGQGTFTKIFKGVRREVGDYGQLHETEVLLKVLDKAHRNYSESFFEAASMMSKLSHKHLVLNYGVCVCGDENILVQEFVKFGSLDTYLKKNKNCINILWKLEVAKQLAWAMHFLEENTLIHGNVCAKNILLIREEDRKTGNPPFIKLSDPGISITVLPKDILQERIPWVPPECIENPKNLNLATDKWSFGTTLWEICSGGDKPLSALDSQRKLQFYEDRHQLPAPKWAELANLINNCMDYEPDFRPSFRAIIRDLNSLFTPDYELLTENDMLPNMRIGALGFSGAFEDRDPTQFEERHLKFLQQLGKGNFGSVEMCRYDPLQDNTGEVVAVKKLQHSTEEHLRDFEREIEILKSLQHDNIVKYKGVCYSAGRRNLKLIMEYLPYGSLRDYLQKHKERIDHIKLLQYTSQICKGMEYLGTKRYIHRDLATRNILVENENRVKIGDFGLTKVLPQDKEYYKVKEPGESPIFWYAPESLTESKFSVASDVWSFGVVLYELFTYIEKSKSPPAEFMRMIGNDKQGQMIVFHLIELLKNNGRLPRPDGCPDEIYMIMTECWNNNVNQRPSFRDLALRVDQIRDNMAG
Method in brief: (§5)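 LanthaScreen format: phospho-STAT1 (pTyr701) detected with 2 nM Tb antibody after 10 mM EDTA quench. Kinase step used Km-level ATP and 200 nM STAT1 peptide, 1 h at ambient after 1 h pre-incubation. Inhibition fitted to IC50, reported as pKi.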

JAK1 = JAK1 (Homo sapiens (Human), UniProt P23458); assay: Biochemical JAK kinase assay (LanthaScreen), JAK1; conditions: for Ki: read-out: JAK1 pKi (converted)
JAK1, sequence (P23458 whole entry): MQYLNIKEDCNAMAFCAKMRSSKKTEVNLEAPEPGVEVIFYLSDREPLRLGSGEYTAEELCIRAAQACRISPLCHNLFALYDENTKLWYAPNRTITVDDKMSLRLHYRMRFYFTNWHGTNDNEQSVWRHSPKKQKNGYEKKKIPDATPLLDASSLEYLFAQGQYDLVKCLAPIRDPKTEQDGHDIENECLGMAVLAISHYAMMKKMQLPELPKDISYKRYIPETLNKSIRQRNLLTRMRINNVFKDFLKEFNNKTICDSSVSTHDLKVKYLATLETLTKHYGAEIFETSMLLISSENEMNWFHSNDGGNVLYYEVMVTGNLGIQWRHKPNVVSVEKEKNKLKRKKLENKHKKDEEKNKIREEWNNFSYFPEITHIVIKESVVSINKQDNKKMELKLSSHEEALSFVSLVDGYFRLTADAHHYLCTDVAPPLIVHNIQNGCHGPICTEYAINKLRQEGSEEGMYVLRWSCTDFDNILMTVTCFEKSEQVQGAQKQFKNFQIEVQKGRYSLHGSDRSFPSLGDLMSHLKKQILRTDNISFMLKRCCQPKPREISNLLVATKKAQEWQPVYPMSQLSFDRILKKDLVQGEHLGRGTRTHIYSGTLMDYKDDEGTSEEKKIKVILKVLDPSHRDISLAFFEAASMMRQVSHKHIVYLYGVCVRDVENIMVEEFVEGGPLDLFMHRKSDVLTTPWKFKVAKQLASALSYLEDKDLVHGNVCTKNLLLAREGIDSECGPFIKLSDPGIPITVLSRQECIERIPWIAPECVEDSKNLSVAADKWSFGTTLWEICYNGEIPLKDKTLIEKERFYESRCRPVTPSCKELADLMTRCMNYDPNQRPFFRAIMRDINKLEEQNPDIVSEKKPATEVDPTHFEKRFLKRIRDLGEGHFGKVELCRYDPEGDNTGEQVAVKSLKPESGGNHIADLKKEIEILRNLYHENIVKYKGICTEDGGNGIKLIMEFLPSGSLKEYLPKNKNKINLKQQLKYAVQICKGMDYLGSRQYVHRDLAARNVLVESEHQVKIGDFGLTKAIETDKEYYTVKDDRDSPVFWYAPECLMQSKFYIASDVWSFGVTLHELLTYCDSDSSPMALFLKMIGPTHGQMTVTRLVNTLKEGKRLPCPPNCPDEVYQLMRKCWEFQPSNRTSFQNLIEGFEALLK
Method in brief: as §5

[1] = test system: IL-13 induced STAT6 phosphorylation in BEAS-2B human lung epithelial cells; assay: Cellular JAKI potency assay (BEAS-2B); format: cell-based; conditions: Homo sapiens, BEAS-2B, BEAS-2B cells, read-out: BEAS2B pIC50 (converted)
Method in brief: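 AlphaLISA SureFire detection of Tyr641 pSTAT6 in lysates gave IC50s (4-parameter fit, expressed as pIC50). Cells: human BEAS-2B, exposed 1 h at 37 °C to compound dose series at 0.1% DMSO, then 30 min to IL-13 added at 80 ng/mL in HEPES-buffered HBSS with BSA.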

TYK2 = TYK2 (Homo sapiens (Human), UniProt P29597); assay: Biochemical JAK kinase assay (LanthaScreen), Tyk2; conditions: read-out: Tyk2 pKi (converted)
TYK2, sequence (P29597 whole entry): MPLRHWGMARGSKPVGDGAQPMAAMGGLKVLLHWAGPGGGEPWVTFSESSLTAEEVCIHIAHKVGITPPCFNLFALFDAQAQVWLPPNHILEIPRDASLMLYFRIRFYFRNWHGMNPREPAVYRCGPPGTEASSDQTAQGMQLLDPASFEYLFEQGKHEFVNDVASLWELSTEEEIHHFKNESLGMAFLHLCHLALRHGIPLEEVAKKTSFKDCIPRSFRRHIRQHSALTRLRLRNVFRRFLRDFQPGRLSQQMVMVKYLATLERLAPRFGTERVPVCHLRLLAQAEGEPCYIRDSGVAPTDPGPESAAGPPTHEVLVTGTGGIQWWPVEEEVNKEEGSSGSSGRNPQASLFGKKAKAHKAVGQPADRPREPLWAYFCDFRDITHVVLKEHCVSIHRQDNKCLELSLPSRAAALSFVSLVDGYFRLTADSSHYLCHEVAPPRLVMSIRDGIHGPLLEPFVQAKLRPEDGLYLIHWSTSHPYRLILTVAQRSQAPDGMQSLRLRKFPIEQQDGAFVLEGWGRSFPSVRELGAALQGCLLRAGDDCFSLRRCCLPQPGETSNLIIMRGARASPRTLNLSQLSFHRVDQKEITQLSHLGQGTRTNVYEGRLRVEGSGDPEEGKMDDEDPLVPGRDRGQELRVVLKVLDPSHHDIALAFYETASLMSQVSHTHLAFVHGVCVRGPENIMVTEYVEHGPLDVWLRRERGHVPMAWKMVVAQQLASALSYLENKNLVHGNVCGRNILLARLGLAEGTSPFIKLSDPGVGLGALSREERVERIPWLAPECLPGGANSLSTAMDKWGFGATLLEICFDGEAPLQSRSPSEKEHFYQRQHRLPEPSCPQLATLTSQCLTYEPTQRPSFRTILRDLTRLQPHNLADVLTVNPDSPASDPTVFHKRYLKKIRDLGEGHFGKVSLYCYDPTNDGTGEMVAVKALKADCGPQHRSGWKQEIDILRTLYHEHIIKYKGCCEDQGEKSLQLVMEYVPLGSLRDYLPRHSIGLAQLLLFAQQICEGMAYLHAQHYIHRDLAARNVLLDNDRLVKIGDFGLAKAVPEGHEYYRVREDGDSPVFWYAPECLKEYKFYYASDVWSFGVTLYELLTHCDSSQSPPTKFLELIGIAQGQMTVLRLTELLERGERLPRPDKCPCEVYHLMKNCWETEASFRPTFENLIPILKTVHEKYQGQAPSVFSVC
Procedure: as §1, §2, §3, §4

JAK3, sequence (P52333 whole entry): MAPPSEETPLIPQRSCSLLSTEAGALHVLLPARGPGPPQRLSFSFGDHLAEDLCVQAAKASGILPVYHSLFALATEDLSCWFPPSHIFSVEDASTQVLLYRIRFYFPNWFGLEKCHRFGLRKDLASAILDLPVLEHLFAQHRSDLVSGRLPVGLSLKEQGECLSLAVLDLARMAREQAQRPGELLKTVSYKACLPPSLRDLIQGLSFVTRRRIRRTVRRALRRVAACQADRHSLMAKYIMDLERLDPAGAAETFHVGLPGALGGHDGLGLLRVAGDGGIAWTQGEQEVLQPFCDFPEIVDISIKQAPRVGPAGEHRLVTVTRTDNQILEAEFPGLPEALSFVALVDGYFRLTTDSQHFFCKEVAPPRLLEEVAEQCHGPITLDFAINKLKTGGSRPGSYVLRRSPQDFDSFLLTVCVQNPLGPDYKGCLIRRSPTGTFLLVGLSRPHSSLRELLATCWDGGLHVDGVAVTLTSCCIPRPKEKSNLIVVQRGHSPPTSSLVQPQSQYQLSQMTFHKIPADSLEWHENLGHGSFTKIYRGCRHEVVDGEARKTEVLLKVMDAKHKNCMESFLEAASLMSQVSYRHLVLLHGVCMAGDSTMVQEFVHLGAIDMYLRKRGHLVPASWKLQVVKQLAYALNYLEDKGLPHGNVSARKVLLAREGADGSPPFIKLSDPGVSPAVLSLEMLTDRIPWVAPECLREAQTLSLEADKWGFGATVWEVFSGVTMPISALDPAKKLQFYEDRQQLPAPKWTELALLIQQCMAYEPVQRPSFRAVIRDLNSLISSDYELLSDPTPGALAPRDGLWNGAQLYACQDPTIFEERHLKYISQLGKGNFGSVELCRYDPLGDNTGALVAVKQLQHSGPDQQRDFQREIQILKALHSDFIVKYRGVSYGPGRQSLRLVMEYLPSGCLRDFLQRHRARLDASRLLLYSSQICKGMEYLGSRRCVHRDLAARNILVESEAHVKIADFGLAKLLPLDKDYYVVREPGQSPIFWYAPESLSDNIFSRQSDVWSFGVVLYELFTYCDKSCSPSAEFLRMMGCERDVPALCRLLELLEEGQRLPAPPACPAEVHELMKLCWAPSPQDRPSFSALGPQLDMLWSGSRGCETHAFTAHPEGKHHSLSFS

CCc1cc(O)ccc1-c1ccc2c(-c3nc(C4=CCN(C(C)CN)CC4)c[nH]3)n[nH]c2c1F (stereo not drawn) [Example 213]
Ki (JAK3): 0.1 to 1 nM
Ki (JAK2): 0.1 to 1 nM
Ki (JAK1): 0.1 to 1 nM
IC50 [1]: 100 to 316 nM
Ki (TYK2): 10 to 100 nM

CCc1cc(O)ccc1-c1ccc2c(-c3nc(C4=CCN(C(=O)CN)C4)c[nH]3)n[nH]c2c1F [Example 173]
Ki (JAK3): 0.1 to 1 nM
JAK2 pKi (JAK2): A (A represents a pKi value ≥10 (Ki≤0.1 nM))
Ki (JAK1): 0.1 to 1 nM
IC50 [1]: 31.6 to 100 nM
Ki (TYK2): 1 to 10 nM

CCc1cc(O)ccc1-c1ccc2c(-c3nc(C4=CC[C@@H](C)NC4)c[nH]3)n[nH]c2c1 [Example 231]
Ki (JAK3): 0.1 to 1 nM
JAK2 pKi (JAK2): A (A represents a pKi value ≥10 (Ki≤0.1 nM))
Ki (JAK1): 0.1 to 1 nM
IC50 [1]: 3.16 to 10 nM
Ki (TYK2): 1 to 10 nM

CCc1cc(O)ccc1-c1ccc2c(-c3nc(C4=CCN(CCCO)C4)c[nH]3)n[nH]c2c1F [Example 54]
Ki (JAK3): 0.1 to 1 nM
JAK2 pKi (JAK2): A (A represents a pKi value ≥10 (Ki≤0.1 nM))
JAK1 pKi (JAK1): A (A represents a pKi value ≥10 (Ki≤0.1 nM))
IC50 [1]: 3.16 to 10 nM
Ki (TYK2): 1 to 10 nM

CCc1cc(O)ccc1-c1ccc2c(-c3nc(C4=CCN(C5CCCN(C)C5)CC4)c[nH]3)n[nH]c2c1F (stereo not drawn) [Example 212]
Ki (JAK3): 0.1 to 1 nM
JAK2 pKi (JAK2): A (A represents a pKi value ≥10 (Ki≤0.1 nM))
Ki (JAK1): 0.1 to 1 nM
IC50 [1]: 10 to 31.6 nM
Ki (TYK2): 1 to 10 nM

CCc1cc(O)ccc1-c1ccc2c(-c3nc(C4=CCCN(C5CCN(C)C5)C4)c[nH]3)n[nH]c2c1F (stereo not drawn) [Example 215]
Ki (JAK3): 0.1 to 1 nM
Ki (JAK2): 0.1 to 1 nM
Ki (JAK1): 1 to 10 nM
IC50 [1]: 31.6 to 100 nM
Ki (TYK2): 1 to 10 nM

CCc1cc(O)ccc1-c1ccc2c(-c3nc(C4=CCN(C(=O)CN)CC4)c[nH]3)n[nH]c2c1 [Example 152]
Ki (JAK3): 0.1 to 1 nM
JAK2 pKi (JAK2): A (A represents a pKi value ≥10 (Ki≤0.1 nM))
Ki (JAK1): 0.1 to 1 nM
IC50 [1]: 10 to 31.6 nM
Ki (TYK2): 1 to 10 nM

CCc1cc(O)ccc1-c1ccc2c(-c3nc(C4=CCN(C[C@@H]5COCCN5)C4)c[nH]3)n[nH]c2c1F [Example 205]
Ki (JAK3): 0.1 to 1 nM
Ki (JAK2): 0.1 to 1 nM
Ki (JAK1): 0.1 to 1 nM
IC50 [1]: 10 to 31.6 nM
Ki (TYK2): 1 to 10 nM

CCc1cc(O)ccc1-c1ccc2c(-c3nc(C4=C[C@H](C)NCC4)c[nH]3)n[nH]c2c1F [Example 299]
Ki (JAK3): 0.1 to 1 nM
Ki (JAK2): 0.1 to 1 nM
Ki (JAK1): 0.1 to 1 nM
IC50 [1]: 10 to 31.6 nM
Ki (TYK2): 0.1 to 1 nM

CCc1cc(O)ccc1-c1ccc2c(-c3nc(C4=CCN(C5COC5)CC4)c[nH]3)n[nH]c2c1F [Example 64]
Ki (JAK3): 0.1 to 1 nM
Ki (JAK2): 0.1 to 1 nM
Ki (JAK1): 0.1 to 1 nM
IC50 [1]: 10 to 31.6 nM
Ki (TYK2): 1 to 10 nM

CCc1cc(O)ccc1-c1ccc2c(-c3nc(C4=CCN(CCN5CCOCC5)CC4)c[nH]3)n[nH]c2c1F [Example 191]
Ki (JAK3): 0.1 to 1 nM
JAK2 pKi (JAK2): A (A represents a pKi value ≥10 (Ki≤0.1 nM))
JAK1 pKi (JAK1): A (A represents a pKi value ≥10 (Ki≤0.1 nM))
IC50 [1]: 10 to 31.6 nM
Ki (TYK2): 1 to 10 nM

CCc1cc(O)ccc1-c1ccc2c(-c3nc(C4=CCN(CCN5CCOCC5)C4)c[nH]3)n[nH]c2c1F [Example 206]
Ki (JAK3): 0.1 to 1 nM
JAK2 pKi (JAK2): A (A represents a pKi value ≥10 (Ki≤0.1 nM))
Ki (JAK1): 0.1 to 1 nM
IC50 [1]: 10 to 31.6 nM
Ki (TYK2): 1 to 10 nM

CCCN1CC=C(c2c[nH]c(-c3n[nH]c4c(F)c(-c5ccc(O)cc5CC)ccc34)n2)CC1 [Example 24]
Ki (JAK3): 0.1 to 1 nM
JAK2 pKi (JAK2): A (A represents a pKi value ≥10 (Ki≤0.1 nM))
Ki (JAK1): 0.1 to 1 nM
IC50 [1]: 3.16 to 10 nM
Ki (TYK2): 1 to 10 nM

CCc1cc(O)ccc1-c1ccc2c(-c3nc(C4=C[C@@H](CO)NC4)c[nH]3)n[nH]c2c1F [Example 245]
Ki (JAK3): 0.1 to 1 nM
Ki (JAK2): 0.1 to 1 nM
Ki (JAK1): 0.1 to 1 nM
IC50 [1]: 31.6 to 100 nM
Ki (TYK2): 10 to 100 nM

CCc1cc(O)ccc1-c1ccc2c(-c3nc(C4=CCCN(C5COC5)C4)c[nH]3)n[nH]c2c1F [Example 70]
Ki (JAK3): 0.1 to 1 nM
Ki (JAK2): 0.1 to 1 nM
Ki (JAK1): 1 to 10 nM
IC50 [1]: 31.6 to 100 nM
Ki (TYK2): 10 to 100 nM
